The numbers were not newly measured in patent US7541371B2, “Method for treating a motor neuron disease” (Eisai R&D Management Co., Ltd., priority 2006, dated 2009), which cites them from elsewhere.

The data set concerns the target T1, serotonin 1A receptor (Rattus norvegicus, UniProt P19327).
T1 construct: mixed with the receptor fraction of the hippocampus; from tissue; host or cells: rat hippocampus
T1 sequence (P19327 1-422): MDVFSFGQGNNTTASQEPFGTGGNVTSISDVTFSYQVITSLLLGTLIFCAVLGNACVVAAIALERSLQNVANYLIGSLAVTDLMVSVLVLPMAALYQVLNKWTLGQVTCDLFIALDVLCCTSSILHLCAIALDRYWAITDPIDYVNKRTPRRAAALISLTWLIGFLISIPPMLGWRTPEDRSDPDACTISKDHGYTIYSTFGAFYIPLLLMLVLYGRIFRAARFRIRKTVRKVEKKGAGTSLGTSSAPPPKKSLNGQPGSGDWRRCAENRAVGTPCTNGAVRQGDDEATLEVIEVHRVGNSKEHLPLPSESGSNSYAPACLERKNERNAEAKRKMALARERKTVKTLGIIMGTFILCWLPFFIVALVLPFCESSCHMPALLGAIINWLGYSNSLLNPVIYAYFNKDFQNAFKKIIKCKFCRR
The note with it: rat hippocampus receptor fraction, 0.5 nM [3H]8-hydroxy-dipropylaminotetralin; compounds 7 and 8, WO 99/18077; read-out: 5HT1a; cited from earlier work.

Consider `CCN1CCN(c2nc(-c3ccc(OCC(C)(C)O)cc3)cc3sccc23)CC1` [Compound 8, 1-{4-[4-(4-ethylpiperazin-1-yl)thieno[3,2-c]pyridin-6-yl]phenoxy}-2-methylpropan-2-ol], for which the Ki is 54.9 nM.
